Data from patent US20070049564A1 (Wyeth, priority 2005, published 2007).
Where two headings read alike, the source gives them in different places.

Key:
S. epidermidis GC 4935 = experiment: MIC, broth microdilution; settings: Staphylococcus epidermidis
E. coli GC 2231 = experiment: MIC, broth microdilution; settings: Escherichia coli
S. aureus GC 6466 = experiment: MIC, broth microdilution; settings: Staphylococcus aureus
E. faecalis GC 4555 = experiment: MIC, broth microdilution; settings: Enterococcus faecalis
S. typhimurium GC 2172 = experiment: MIC, broth microdilution; settings: Salmonella enterica, TYPHIMURIUM
S. pneumoniae* GC 4465 = experiment: MIC, broth microdilution; settings: Streptococcus pneumoniae
E. faecalis GC 2267 = experiment: MIC, broth microdilution; settings: Enterococcus faecalis
E. coli GC 2272 = experiment: MIC, broth microdilution; settings: Escherichia coli
E. coli GC 2236 = experiment: MIC, broth microdilution; settings: Escherichia coli
S. aureus GC 1131 = experiment: MIC, broth microdilution; settings: Staphylococcus aureus
E. coli GC 2235 = experiment: MIC, broth microdilution; settings: Escherichia coli
Staph. = experiment: Range of MIC for Staph. strains, including MRSA; settings: Staphylococcus aureus
E. coli GC 2233 = experiment: MIC, broth microdilution; settings: Escherichia coli
Procedure: Antimicrobial susceptibility testing. The in vitro activities of the antibiotics are determined by the broth microdilution method as recommended by the National Committee for Clinical Laboratory Standards (NCCLS) (1). Mueller-Hinton II broth (MHBII)(BBL Cockeysville, Md.) is the medium employed in the testing procedures. Microtiter plates containing serial dilutions of each antimicrobial agent are inoculated with each organism to yield the appropriate density (10^5 CFU/ml) in a 100 μl final volume. The plates are incubated for 18-22 hours at 35° C. in ambient air.
Representative compounds were first incubated in mouse serum for an hour prior to the in vitro testing against a panel of selected gram-positive and gram-negative bacteria strains. All compounds were also pre-incubated in water for an hour prior to testing as control.

S. aureus GC 1079 = experiment: MIC, broth microdilution; settings: Staphylococcus aureus
E. coli GC 2203 = experiment: MIC, broth microdilution; settings: Escherichia coli
S. aureus GC 6467 = experiment: MIC, broth microdilution; settings: Staphylococcus aureus
E. coli GC 2234 = experiment: MIC, broth microdilution; settings: Escherichia coli
E. coli GC 6465 = experiment: MIC, broth microdilution; settings: Escherichia coli
E. coli GC 4560 = experiment: MIC, broth microdilution; settings: Escherichia coli
E. faecium GC 4556 = experiment: MIC, broth microdilution; settings: Enterococcus faecium
[1] = read-out: MINIMAL INHIBITORY CONCENTRATION MIC, pre-incubated in Human Serum
[2] = read-out: MINIMAL INHIBITORY CONCENTRATION MIC, pre-incubated in Mouse Serum
[3] = read-out: MINIMAL INHIBITORY CONCENTRATION MIC, pre-incubated in Water

Measured: MIC

CN(C)c1cc(NC(=O)CN(C(=O)OCOC(=O)c2ccc(C(C)(C)C)cc2)C(C)(C)C)c(O)c2c1C[C@H]1C[C@H]3[C@H](N(C)C)C(O)=C(C(N)=O)C(=O)[C@@]3(O)C(O)=C1C2=O [Example 43, ({[(2-{[(5aR,6aS,7S,10aS)-9-(aminocarbonyl)-4,7-bis(dimethylamino)-1,8,10a,11-tetrahydroxy-10,12-dioxo-5,5a,6,6a,7,10,10a,12-octahydrotetracen-2-yl]amino}-2-oxoethyl)(tert-butyl)amino]carbonyl}oxy)methyl 4-tert-butylbenzoate]
32 µg/mL: S. epidermidis GC 4935; GC4935, read-out: MINIMAL INHIBITORY CONCENTRATION MIC, pre-incubated in Water | E. faecalis GC 4555; GC4555, read-out: MINIMAL INHIBITORY CONCENTRATION MIC, pre-incubated in Water | E. faecalis GC 2267; GC2267, read-out: MINIMAL INHIBITORY CONCENTRATION MIC, pre-incubated in Water | S. aureus GC 1079; GC1079, read-out: MINIMAL INHIBITORY CONCENTRATION MIC, pre-incubated in Human Serum | S. aureus GC 6467; GC6467, read-out: MINIMAL INHIBITORY CONCENTRATION MIC, pre-incubated in Human Serum | E. coli GC 4560; GC4560, read-out: MINIMAL INHIBITORY CONCENTRATION MIC, pre-incubated in Water
1 µg/mL: S. pneumoniae* GC 4465; [1] | S. aureus GC 1131; GC1131, read-out: MINIMAL INHIBITORY CONCENTRATION MIC, pre-incubated in Mouse Serum | S. aureus GC 1079; GC1079, read-out: MINIMAL INHIBITORY CONCENTRATION MIC, pre-incubated in Mouse Serum
0.5 to 2 µg/mL: Staph.; MRSA, read-out: Range of MIC, Staph (Mouse Serum)
4 to 64 µg/mL: Staph.; read-out: Minimum inhibitory concentration (MIC), Staph (Human Serum)
0.5 µg/mL: E. coli GC 2231; GC2231, read-out: MINIMAL INHIBITORY CONCENTRATION MIC, pre-incubated in Mouse Serum | S. aureus GC 6466; GC6466, read-out: MINIMAL INHIBITORY CONCENTRATION MIC, pre-incubated in Mouse Serum | E. faecalis GC 4555; GC4555, read-out: MINIMAL INHIBITORY CONCENTRATION MIC, pre-incubated in Mouse Serum | S. pneumoniae* GC 4465; [3] | E. faecalis GC 2267; GC2267, read-out: MINIMAL INHIBITORY CONCENTRATION MIC, pre-incubated in Mouse Serum | E. coli GC 2272; GC2272, read-out: MINIMAL INHIBITORY CONCENTRATION MIC, pre-incubated in Mouse Serum | E. coli GC 2236; GC2236, read-out: MINIMAL INHIBITORY CONCENTRATION MIC, pre-incubated in Mouse Serum | E. coli GC 2233; GC2233, read-out: MINIMAL INHIBITORY CONCENTRATION MIC, pre-incubated in Mouse Serum | E. coli GC 2203; GC2203, read-out: MINIMAL INHIBITORY CONCENTRATION MIC, pre-incubated in Mouse Serum | S. aureus GC 6467; GC6467, read-out: MINIMAL INHIBITORY CONCENTRATION MIC, pre-incubated in Mouse Serum | E. faecium GC 4556; GC4556, read-out: MINIMAL INHIBITORY CONCENTRATION MIC, pre-incubated in Mouse Serum
4 µg/mL: S. epidermidis GC 4935; GC4935, read-out: MINIMAL INHIBITORY CONCENTRATION MIC, pre-incubated in Human Serum | E. faecalis GC 2267; GC2267, read-out: MINIMAL INHIBITORY CONCENTRATION MIC, pre-incubated in Human Serum
< 0.06 µg/mL: S. pneumoniae* GC 4465; [2] | E. coli GC 4560; GC4560, read-out: MINIMAL INHIBITORY CONCENTRATION MIC, pre-incubated in Mouse Serum
64 µg/mL: S. aureus GC 6466; GC6466, read-out: MINIMAL INHIBITORY CONCENTRATION MIC, pre-incubated in Water | S. aureus GC 1131; GC1131, read-out: MINIMAL INHIBITORY CONCENTRATION MIC, pre-incubated in Water | S. aureus GC 1079; GC1079, read-out: MINIMAL INHIBITORY CONCENTRATION MIC, pre-incubated in Water
0.25 µg/mL: E. coli GC 2235; GC2235, read-out: MINIMAL INHIBITORY CONCENTRATION MIC, pre-incubated in Mouse Serum | E. coli GC 2234; GC2234, read-out: MINIMAL INHIBITORY CONCENTRATION MIC, pre-incubated in Mouse Serum
> 64 µg/mL: E. coli GC 2231; GC2231, read-out: MINIMAL INHIBITORY CONCENTRATION MIC, pre-incubated in Human Serum | E. coli GC 2231; GC2231, read-out: MINIMAL INHIBITORY CONCENTRATION MIC, pre-incubated in Water | S. typhimurium GC 2172; [1] | S. typhimurium GC 2172; [3] | E. coli GC 2272; GC2272, read-out: MINIMAL INHIBITORY CONCENTRATION MIC, pre-incubated in Human Serum | E. coli GC 2272; GC2272, read-out: MINIMAL INHIBITORY CONCENTRATION MIC, pre-incubated in Water | E. coli GC 2236; GC2236, read-out: MINIMAL INHIBITORY CONCENTRATION MIC, pre-incubated in Human Serum | E. coli GC 2236; GC2236, read-out: MINIMAL INHIBITORY CONCENTRATION MIC, pre-incubated in Water | E. coli GC 2235; GC2235, read-out: MINIMAL INHIBITORY CONCENTRATION MIC, pre-incubated in Human Serum | E. coli GC 2235; GC2235, read-out: MINIMAL INHIBITORY CONCENTRATION MIC, pre-incubated in Water | E. coli GC 2233; GC2233, read-out: MINIMAL INHIBITORY CONCENTRATION MIC, pre-incubated in Human Serum | E. coli GC 2233; GC2233, read-out: MINIMAL INHIBITORY CONCENTRATION MIC, pre-incubated in Water | E. coli GC 2203; GC2203, read-out: MINIMAL INHIBITORY CONCENTRATION MIC, pre-incubated in Human Serum | E. coli GC 2203; GC2203, read-out: MINIMAL INHIBITORY CONCENTRATION MIC, pre-incubated in Water | S. aureus GC 6467; GC6467, read-out: MINIMAL INHIBITORY CONCENTRATION MIC, pre-incubated in Water | E. coli GC 2234; GC2234, read-out: MINIMAL INHIBITORY CONCENTRATION MIC, pre-incubated in Human Serum | E. coli GC 2234; GC2234, read-out: MINIMAL INHIBITORY CONCENTRATION MIC, pre-incubated in Water | E. coli GC 6465; GC6465, read-out: MINIMAL INHIBITORY CONCENTRATION MIC, pre-incubated in Human Serum | E. coli GC 6465; GC6465, read-out: MINIMAL INHIBITORY CONCENTRATION MIC, pre-incubated in Water
16 µg/mL: S. aureus GC 6466; GC6466, read-out: MINIMAL INHIBITORY CONCENTRATION MIC, pre-incubated in Human Serum | S. aureus GC 1131; GC1131, read-out: MINIMAL INHIBITORY CONCENTRATION MIC, pre-incubated in Human Serum | E. coli GC 4560; GC4560, read-out: MINIMAL INHIBITORY CONCENTRATION MIC, pre-incubated in Human Serum | E. faecium GC 4556; GC4556, read-out: MINIMAL INHIBITORY CONCENTRATION MIC, pre-incubated in Water
8 µg/mL: E. faecalis GC 4555; GC4555, read-out: MINIMAL INHIBITORY CONCENTRATION MIC, pre-incubated in Human Serum | E. faecium GC 4556; GC4556, read-out: MINIMAL INHIBITORY CONCENTRATION MIC, pre-incubated in Human Serum
2 µg/mL: S. epidermidis GC 4935; GC4935, read-out: MINIMAL INHIBITORY CONCENTRATION MIC, pre-incubated in Mouse Serum | S. typhimurium GC 2172; [2] | E. coli GC 6465; GC6465, read-out: MINIMAL INHIBITORY CONCENTRATION MIC, pre-incubated in Mouse Serum
